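Values below derive from 48-hour exposures of cells grown in 96-well plates, with endpoints linearly interpolated between the two concentrations bracketing the appropriate inhibition level. Abbreviation: GI50, concentration required for 50% inhibition of growth. TGI denotes the concentration required for complete inhibition of growth.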
Experiments:
Experiment in all cases: growth of human tumour cells (NCI), 48 h
NCI-H226 lung = system: NCI-H226 lung
MOLT-4 leukemia = system: MOLT-4 leukemia
NCI-H460 lung = system: NCI-H460 lung
HOP-62 NSCLC = system: HOP-62 NSCLC
SK-MEL-5 melanoma = system: SK-MEL-5 melanoma
HL-60(TB) leukemia = system: HL-60(TB) leukemia
NCI-H522 lung = system: NCI-H522 lung
ACHN renal = system: ACHN renal
EKVX NSCLC = system: EKVX NSCLC
BT-549 breast = system: BT-549 breast

| SMILES | TGI (NCI-H226 lung) | TGI (MOLT-4 leukemia) | TGI (NCI-H460 lung) | TGI (HOP-62 NSCLC) | TGI (SK-MEL-5 melanoma) | TGI (HL-60(TB) leukemia) | TGI (NCI-H522 lung) | TGI (ACHN renal) | TGI (EKVX NSCLC) | GI50 (NCI-H226 lung) | GI50 (MOLT-4 leukemia) | GI50 (NCI-H460 lung) | GI50 (HOP-62 NSCLC) | GI50 (SK-MEL-5 melanoma) | GI50 (BT-549 breast) | TGI (BT-549 breast) | GI50 (HL-60(TB) leukemia) | GI50 (ACHN renal) | GI50 (EKVX NSCLC) | GI50 (NCI-H522 lung) |
| --- | --- | --- | --- | --- | --- | --- | --- | --- | --- | --- | --- | --- | --- | --- | --- | --- | --- | --- | --- | --- |
| CC1=C(C(=O)Nc2cc(F)c(F)cc2F)C(c2cccc([N+](=O)[O-])c2)C(C(=O)Nc2ccccc2C(F)(F)F)=C(C)N1 (centres undefined) | 74.7 µM | 42 µM | 43.6 µM | 54.5 µM | 63.9 µM | 37.1 µM | 34.7 µM | 66.1 µM | 77.1 µM | – | – | – | – | – | – | – | – | – | – | – |
| Nc1cc2c3c(cccc3c1)C(=O)N(CCN1CCN(CCN3C(=O)c4cccc5cc(N)cc(c45)C3=O)CC1)C2=O | > 100 µM | > 100 µM | > 100 µM | > 100 µM | > 100 µM | > 100 µM | > 100 µM | > 100 µM | > 100 µM | – | – | – | – | – | – | – | – | – | – | – |
| COC(=O)C12C3C=CC(O3)C1C1C=CC2O1 (centres undefined) | > 100 µM | > 100 µM | > 100 µM | – | > 100 µM | > 100 µM | > 100 µM | > 100 µM | > 100 µM | – | – | – | – | – | – | – | – | – | – | – |
| Oc1ccc(-c2nc(-c3ccc(F)cc3)c(-c3ccncc3)[nH]2)cc1 | > 100 µM | 32.5 µM | 59.7 µM | > 100 µM | 29.6 µM | 67.1 µM | – | > 100 µM | > 100 µM | 28.3 µM | 7.97 µM | 18.8 µM | 36.7 µM | 4.73 µM | 17.7 µM | 64 µM | 18.1 µM | 3.97 µM | 13.6 µM | – |
| Nc1ccc(C(=O)O)c2[nH]c3ccccc3c(=O)c12 | – | > 100 µM | > 100 µM | > 100 µM | > 100 µM | > 100 µM | > 100 µM | > 100 µM | – | – | – | – | – | – | – | – | – | – | – | – |
| COc1cc(C2c3cc4c(cc3[C@@H](OCCN)[C@H]3COC(=O)C23)OCO4)cc(OC)c1O (some centres undefined) | 0.933 µM | 0.733 µM | > 100 µM | 0.34 µM | 1.49 µM | 0.0633 µM | 0.596 µM | 2.01 µM | 2.22 µM | – | – | – | – | – | – | – | – | – | – | – |
| CC(=O)OCC1OC(n2cnc3c(I)nc(I)nc32)C(OC(C)=O)C1OC(C)=O (centres undefined) | 35.5 µM | 24.8 µM | 35.9 µM | 34.4 µM | 26.1 µM | 5.52 µM | 3.53 µM | 21.8 µM | 33.3 µM | – | – | – | – | – | – | – | – | – | – | – |
| Cn1c(=O)c2c(nc3n2C(CCl)CO3)n(C)c1=O (centres undefined) | > 100 µM | > 100 µM | > 100 µM | > 100 µM | > 100 µM | > 100 µM | > 100 µM | > 100 µM | > 100 µM | – | – | – | – | – | – | – | – | – | – | – |
| Cc1ccc(C)c(NC(=O)CCC(=O)CC(=O)C(C)(C)C)c1 | – | > 100 µM | > 100 µM | > 100 µM | > 100 µM | – | > 100 µM | > 100 µM | > 100 µM | – | – | – | – | – | – | – | – | – | – | – |
| C=C1C(=O)C23C(O)C1CCC2C12CO[C@]3(O)[C@@H](O)C1C(C)(C)CCC2O (some centres undefined) | 34.9 µM | > 38.9 µM | 29.2 µM | 40.5 µM | 37 µM | > 100 µM | 2.15 µM | 27.2 µM | 28.9 µM | – | – | – | – | – | – | – | – | – | – | – |
| CC1(C)CC[C@]2(C(=O)O)CCC3(C)C(=CCC4[C@@]5(C)CC[C@H](OC6OCC(O)C(O)C6OC6OC(CO)C(O)C(O)C6O)C(C)(C)C5CC[C@]43C)C2C1 (some centres undefined) | 3.38 µM | 7.95 µM | 4.22 µM | 4.16 µM | 11.4 µM | – | – | 3.64 µM | 3.85 µM | – | – | – | – | – | – | – | – | – | – | – |
| CCOC(=O)c1c(-c2ccccc2)[nH]c2ccccc2c1=O | – | > 100 µM | > 100 µM | > 100 µM | > 100 µM | > 100 µM | – | > 100 µM | > 100 µM | – | – | – | – | – | – | – | – | – | – | – |
| COC(=O)[C@@]12C3=NO[C@]1(C(=O)OC)C(O[Si](C)(C)C(C)(C)C)C1OC(C)(C)OC1[C@@H]2[C@@H](OCc1ccccc1)CC3 (some centres undefined) | > 100 µM | > 100 µM | – | – | > 100 µM | 13.9 µM | – | – | > 100 µM | – | – | – | – | – | – | – | – | – | – | – |
| COc1ccc(C=O)c(N(C)C(=O)C(C)(C)C)c1 | > 100 µM | > 100 µM | > 100 µM | > 100 µM | > 100 µM | > 100 µM | > 100 µM | > 100 µM | > 100 µM | – | – | – | – | – | – | – | – | – | – | – |
| COc1ccc(C(=O)Nc2ccccc2C#N)cc1 | – | – | > 100 µM | > 100 µM | > 100 µM | > 100 µM | – | > 100 µM | > 100 µM | – | – | – | – | – | – | – | – | – | – | – |
| Clc1ccc(C2=NN(c3ccccc3)C3c4cc(Br)ccc4OCC23)cc1 (centres undefined) | – | > 100 µM | > 100 µM | > 100 µM | > 100 µM | > 100 µM | > 100 µM | > 100 µM | > 100 µM | – | – | – | – | – | – | – | – | – | – | – |
| COC(=O)C1(c2ccc(OC)cc2)NC(c2ccccc2)C2C(=O)N(c3ccc(OC)cc3)C(=O)C21 (centres undefined) | – | > 100 µM | > 100 µM | – | > 100 µM | > 100 µM | > 100 µM | > 100 µM | > 100 µM | – | – | – | – | – | – | – | – | – | – | – |
| C[CH2][Sn]([CH2]C)([O]C(=O)c1cc(OC)c(OC)c(OC)c1)[O][Sn]([CH2]C)([CH2]C)[O]C(=O)c1cc(OC)c(OC)c(OC)c1 | 57.9 µM | > 85.8 µM | > 100 µM | > 100 µM | > 100 µM | > 100 µM | 5.65 µM | 40.8 µM | > 94.8 µM | 27.3 µM | 25.8 µM | > 100 µM | > 100 µM | 74.4 µM | – | – | 35.1 µM | 21.2 µM | > 53.9 µM | 1910 nM |
| N/C(=N\N=C=C1C(=O)Nc2ccc(F)cc21)NO | – | > 100 µM | > 100 µM | > 100 µM | > 100 µM | > 100 µM | > 100 µM | > 100 µM | > 100 µM | – | – | – | – | – | – | – | – | – | – | – |
| Fc1cccc(C=NC23CC4CC(CC(C4)C2)C3)c1 | > 100 µM | > 100 µM | > 100 µM | > 100 µM | – | > 100 µM | > 100 µM | > 100 µM | > 100 µM | – | – | – | – | – | – | – | – | – | – | – |
| CCOC(=O)C12CN(C34CC5CC(CC(C5)C3)C4)CC(C(=O)OCC)(C1=O)C(c1ccccc1)OC2c1ccccc1 (centres undefined) | > 100 µM | > 100 µM | > 100 µM | > 100 µM | > 100 µM | > 100 µM | – | > 100 µM | > 100 µM | – | – | – | – | – | – | – | – | – | – | – |
| Cc1cc(N(CCC#N)CCC#N)ccc1N=Nc1ccc([N+](=O)[O-])cc1 | > 100 µM | > 100 µM | > 100 µM | > 100 µM | > 10 µM | > 100 µM | > 100 µM | > 100 µM | > 100 µM | – | – | – | – | – | – | – | – | – | – | – |
